pIC50: −log10 of the molar value. “Also recorded” adds a separate entry of the source. Where two headings read alike, the source gives them in different places.
Experiments:
IRF-3 = assay: HRV-16 induced activation of IRF-3 in BEAS2B cells; assay type: cell-based, human; conditions: after 2 hr, at 10 MOI
Procedure: (§1) The cells were then collected by scraping on ice and nuclear extracts were prepared using a nuclear protein extraction kit (ActiveMotif, […], Belgium). NFκB activity and IRF3 activity were then measured using the TransAMTM NFκB (p65) ELISA kit or the TransAMTM IRF3 ELISA kit.

NFκB = assay: HRV-16 induced activation of NFκB in BEAS2B cells; assay type: cell-based, human; conditions: after 2 hr, at 10 MOI
Procedure: as §1

p38MAPKα = molecular target: T1, p38MAPKα (Homo sapiens, UniProt Q16539); assay: Kinase enzyme activity, FRET (Z-LYTE); assay type: biochemical; conditions: 10 μM ATP, via MAPKAP-K2
T1 construct: purchased Invitrogen
Procedure: (§2) The enzyme inhibitory activity of test compounds was determined by fluorescence resonance energy transfer (FRET) using synthetic peptides labelled with both donor and acceptor fluorophores (Z-LYTE, Invitrogen). For p38 MAPK alpha (MAPK14: Invitrogen), enzyme activity was evaluated indirectly by determining the activation/phosphorylation of the down-stream molecule, MAPKAP-K2. The p38 MAPK a protein was mixed with the test compound for 2 hr at RT. MAPKAP-K2 (Invitrogen), the FRET peptide (2 μM), which is a phosphorylation target for MAPKAP-K2, and ATP (10 μM) were then added to the enzymes/compound mixture and incubated for 1 hr. Development reagent was added and the mixture incubated for 1 hr before detection by fluorescence completed the assay protocol. The enzymes HCK, c-SRC, and SYK were evaluated in a similar fashion. Each enzyme was incubated with the test compound for 2 hr at RT. […] After the development reagent was added the mixtures were incubated for 1 hr and the assay protocol was completed by detection of the fluorescence levels in a microplate reader.

HCK = HCK (Homo sapiens, UniProt P08631); assay: Kinase enzyme activity, FRET (Z-LYTE); assay type: biochemical; conditions: 15 μM ATP
Procedure: as §2

HRV39 [1] = assay: HRV-39 viral load in air-liquid interface cultured nasal epithelial cells; assay type: cell-based, human rhinovirus
Procedure: (§3) Primary nasal epithelial cells, cultured using an air-liquid interface, were purchased from Epithelix Sarl (Geneva, Switzerland). Fresh, warmed media (200 μL) containing either the test compound at the selected concentration or vehicle (DMSO; final concentration of 0.5%) was transferred to the apical chamber, and fresh, warmed media (700 μL) containing either the test compound at the selected concentration or vehicle (DMSO; final concentration of 0.5%) were transferred to the bottom chamber. After incubation for 2 hr, the media in the upper well was removed carefully. The following day, fresh, warmed media (200 μL) containing either the test compound at the selected concentration or vehicle (DMSO; final concentration of 0.5%) was transferred to the apical chamber again, and after incubation for 2 hr, the media was removed. On the third day, cells were treated again for 2 hr, and the media was removed. […] IL-8 concentrations were determined using a Duoset ELISA development kit (R&D Systems, Minneapolis, Minn.; FIG. 3B). […] The resultant cytopathic effects (CPE) were assessed by visual inspection 5 days after infection. The amount of virus required to infect 50% of Hela cells was calculated for each treatment and is reported as log[TCID50] […]

HRV39 [2] = assay: HRV39 titres in MRC-5 cells; assay type: cell-based, human rhinovirus; conditions: 0.1 or 10 MOI, 3 days, results not shown
HRV16 [3] = assay: Assessment of HRV16 induced CPE in MRC5; assay type: cell-based, human rhinovirus 16; conditions: Rhinovirus A
Procedure: The supernatants were aspirated and fresh media was added and the preparations were then incubated for 4 days. Where appropriate, cells were pre-incubated with the test compound or DMSO for 2 hr, and the compounds and DMSO added again after washout of the virus. Supernatants were aspirated and incubated with methylene blue solution (2% formaldehyde, 10% methanol and 0.175% Methylene Blue) for 2 hr at RT. After washing, 1% SDS was added to each well, and plates were shaken lightly for 1-2 hr prior to reading the absorbance at 660 nm. The percentage inhibition for each well was calculated. The IC50 value was calculated from the concentration-response curve generated from the serial dilutions of the test compound.

HRV16 [4] = assay: HRV-16 infection, assessment of virus load (TCID50) in MRC5 cells; assay type: cell-based, human rhinovirus 16; conditions: HRV16 0.1 MOI, 3 days
Procedure: Human rhinovirus RV16 (HRV16) was obtained from the American Type Culture Collection (Manassas, Va.). Viral stocks were generated by infecting Hela cells with HRV until 80% of the cells were cytopathic. MRC5 cells (human lung fibroblast, ATCC) were infected at 0.1 MOI (multiplicity of infection of 0.1) of HRV16 and incubated for 1 hr at 33° C. with gentle shaking to stimulate adsorption. The cells were then washed with PBS, fresh media (DMEM-5% FCS) was added and the cells were incubated for a further 72 hr. Supernatant (20 μL) was collected and 10-fold serial dilutions were prepared with DMEM containing 1% FCS. All titrations were performed by infecting confluent Hela cell monolayers with serially diluted supernatant (10^−1-10^−5) and then the cytopathic effect at each dilution 3 days after infection assessed by visual inspection. The cells were then stained with Crystal Violet for confirmation. The amount of virus required to infect 50% of Hela cells was calculated in each treatment as TCID50 (50% tissue culture infectious dose, U(unit)/20 μL). Compounds were added 2 hr before HRV16 infection and 1 hr after infection when non-infected HRV was washed out.

IL-8 [5] = assay: HRV39-induced IL-8 release in air-liquid interface cultured nasal epithelial cells; assay type: cell-based, human
Procedure: as §3

IL-8 [6] = assay: IL-8 release activated by human rhinovirus in BEAS2B cells; assay type: cell-based; conditions: for IL-8 production in response to inoculation using HRV-16: epithelial cells
Procedure: BEAS2B cells were infected with rhinovirus at an MOI of 5 and incubated for 2 hr at 33° C. with gentle shaking to enhance adsorption. Test compounds were added 2 hr before HRV infection and 2 hr after infection when residual extracellular HRV was washed out. The cells were then washed with PBS, fresh media was added and the cells were incubated for a further 72 hr. The supernatant was collected for assay of IL-8 concentrations using the Duoset ELISA development kit (R&D Systems, Minneapolis, Minn.).

HRV1B = HRV1B titres in MRC-5 cells; assay type: cell-based, human rhinovirus; conditions: 0.1 or 10 MOI, 3 days, results not shown
SYK = SYK (Homo sapiens, UniProt P43405); assay: Kinase enzyme activity, FRET (Z-LYTE); assay type: biochemical; conditions: 15 μM ATP
Procedure: as §2

HRV16 [7] = assay: HRV-16 infection, assessment of virus load (TCID50) in MRC5 cells; assay type: cell-based, human rhinovirus 16; conditions: MRC5 cells, 0.1 MOI, total period of 84 hr
ICAM-1 = assay: ICAM1 expression activated by human rhinovirus in BEAS2B cells (cell-based ELISA); conditions: for ICAM-1 expression induced by HRV16 inoculation (in words): 2 hr infection
Procedure: BEAS2B cells were infected with rhinovirus at an MOI of 5 and incubated for 2 hr at 33° C. with gentle shaking to enhance adsorption. Test compounds were added 2 hr before HRV infection and 2 hr after infection when residual extracellular HRV was washed out. The cells were then washed with PBS, fresh media was added and the cells were incubated for a further 72 hr. The supernatant was collected for assay of IL-8 concentrations using the Duoset ELISA development kit (R&D Systems, Minneapolis, Minn.). […] After appropriate incubation, cells were fixed with 4% formaldehyde in PBS. After quenching endogenous peroxidase by adding 0.1% sodium azide and 1% hydrogen peroxide, wells were washed with buffer (0.05% Tween in PBS: PBS-Tween). After incubation with the blocking solution (5% milk in PBS-Tween for 1 hr), cells were incubated with anti-human ICAM-1 antibody in 5% BSA PBS-Tween (1:500) overnight. Wells were then washed with PBS-Tween and incubated with the secondary antibody (HRP-conjugated anti-rabbit IgG, Dako Ltd.).

HRV16 mRNA = assay: Transcripts of HRV16 by PCR in MRC5 cellular extract; assay type: cell-based, human rhinovirus 16; conditions: MRC5 cells, HRV16 0.1 MOI, 3 days
Procedure: (§4) The MRC5 cells infected with virus (as described above) were used for viral RNA or mRNA detection. Total RNA extraction and reverse transcription were performed using TaqMan®Fast Cells-to-CT™ Kit (Ambion Inc. Austin Tex.). The gene transcript level of HRV16 (PrimerDesign Ltd, Southampton, UK), IFN (Applied Biosystems, Warrington, UK) and GAPDH, as a house-keeping gene (PrimerDesign Ltd, Southampton, UK) were quantified by real-time PCR using commercially available primers on a StepOnePlus™ RT-PCR system (Applied Biosystems, Warrington, UK). Variations in cDNA concentrations between different samples were corrected using the housekeeping gene, whereby the GAPDH concentration in each cDNA sample was calculated, and the cDNA diluted to contain equal amounts of GAPDH. Standard curves for GAPDH were generated by performing a dilution series of the untreated control cDNA. The relative amount of gene transcript present after different treatments was calculated and normalized by dividing the calculated value for the gene of interest by that of the house-keeping gene value.

interferon β = assay: Interferon β induction (mRNA) by HRV16 in MRC-5 cells, PCR; assay type: cell-based, human
Procedure: as §4

Sequence of HCK (P08631 whole entry): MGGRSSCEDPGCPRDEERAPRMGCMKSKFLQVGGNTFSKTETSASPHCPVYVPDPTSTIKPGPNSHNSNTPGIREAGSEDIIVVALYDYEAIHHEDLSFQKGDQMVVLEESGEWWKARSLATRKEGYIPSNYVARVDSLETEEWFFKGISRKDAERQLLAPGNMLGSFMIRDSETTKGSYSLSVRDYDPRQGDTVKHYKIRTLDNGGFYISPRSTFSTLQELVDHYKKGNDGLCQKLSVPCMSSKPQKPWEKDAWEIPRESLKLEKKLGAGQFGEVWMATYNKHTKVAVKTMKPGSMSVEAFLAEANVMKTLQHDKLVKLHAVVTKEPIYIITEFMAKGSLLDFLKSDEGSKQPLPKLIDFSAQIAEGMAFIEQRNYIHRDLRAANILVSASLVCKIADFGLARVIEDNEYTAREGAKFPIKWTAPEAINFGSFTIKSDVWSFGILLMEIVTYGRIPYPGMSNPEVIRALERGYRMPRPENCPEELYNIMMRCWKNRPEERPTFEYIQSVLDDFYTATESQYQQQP
T1 sequence (Q16539 whole entry): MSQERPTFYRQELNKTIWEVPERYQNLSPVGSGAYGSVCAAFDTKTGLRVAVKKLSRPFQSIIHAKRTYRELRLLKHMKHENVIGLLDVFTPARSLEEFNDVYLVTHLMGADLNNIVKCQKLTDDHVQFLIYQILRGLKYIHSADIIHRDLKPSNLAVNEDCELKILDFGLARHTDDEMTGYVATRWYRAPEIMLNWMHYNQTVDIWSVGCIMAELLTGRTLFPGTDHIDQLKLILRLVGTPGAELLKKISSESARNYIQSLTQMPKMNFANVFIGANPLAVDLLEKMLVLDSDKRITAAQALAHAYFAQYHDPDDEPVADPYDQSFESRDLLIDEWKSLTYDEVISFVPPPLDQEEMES

Row | Compound | IRF-3 activation (HRV-16 induced) (IRF-3) | NFκB activation (HRV-16 induced) (NFκB) | IC50 (p38MAPKα) [nM] | IC50 (HCK) [nM] | HRV39 extracellular virus load (HRV39 [1]) | HRV39 titres (HRV39 [2]) | IC50 (HRV16 [3]; HRV16, MRC5, 96 h, read-out: HRV16-induced CPE IC50 Value (nM)) [nM] | HRV-16 virus load (extracellular) (HRV16 [4]) | IL-8 production in response to inoculation using HRV39 (IL-8 [5]) | pIC50 (IL-8 [6]; Homo sapiens, BEAS-2B, BEAS2B cells, MOI of 5, 72 hr, read-out: HRV16-induced IL-8 IC50 Value) | IL-8 production in response to inoculation using HRV-16 (IL-8 [6]) | HRV1B titres (HRV1B) | IC50 (SYK) [nM] | Activity versus extracellular HRV16 load, delaying treatment for 24-36 hr (HRV16 [7]) | Activity versus extracellular HRV16 load, initial treatment (HRV16 [7]) | ICAM-1 expression induced by HRV16 inoculation (in words) (ICAM-1) | pIC50 (ICAM-1; Homo sapiens, BEAS-2B, HRV16 inoculation (2 hr infection), read-out: HRV16-induced ICAM1 IC50 Value) | HRV16 mRNA detected in cellular extracts (HRV16 mRNA) | pIC50 (HRV16 [3]; 96 h, MRC5 cells, HRV16 MOI of 1, 4 days, read-out: HRV16-induced CPE IC50 Value) | Interferon β induction by HRV16 (interferon β)
1 | COc1ccc(-c2cc3nccn3c(Nc3ncccc3C(N)=O)n2)cc1OC [BAY 61-3606] | tendency to inhibit | inhibited | > 3310 | > 3310 | – | – | – | – | – | – | – | – | – | – | – | – | – | – | – | –
2 | COCC(=O)Nc1cc(COc2ccc(NC(=O)Nc3cc(C(C)(C)C)nn3-c3ccc(C)cc3)c3ccccc23)ccn1 [Reference Compound 1, N-[4-({4-[3-(3-tert-Butyl-1-p-tolyl-1H-pyrazol-5-yl)ureido]naphthalen-1-yloxy}methyl)pyridin-2-yl]-2-methoxyacetamide, reference compound] | without effect; also recorded: No effect | some evidence of inhibition; also recorded: Modest inhibition | – | – | little effect | little or no discernable effect | 340 | modest effect; also recorded: Modest inhibition | marked inhibition | 9.00 | marked inhibition | little or no discernable effect | > 17800 | marked decrease in activity | marked activity | no effect | < 5.77 | – | – | –
3 | COCC(=O)Nc1cc(Oc2ccc(NC(=O)Nc3cc(C(C)(C)C)nn3-c3ccc(C)cc3)c3ccccc23)ccn1 [Reference Compound 2, N-(4-(4-(3-(3-tert-Butyl-1-p-tolyl-1H-pyrazol-5-yl)ureido)naphthalen-1-yloxy)pyridin-2-yl)-2-methoxyacetamide] | enhanced; also recorded: Activation | inhibited; also recorded: Marked inhibition | – | – | potent inhibitor | potent inhibitor | – | potent inhibitor; also recorded: Marked inhibition | marked inhibition | – | marked inhibition | potent inhibitor | – | more sustained | marked activity | remarkably potent inhibitory effect | – | potent inhibitor | 8.33 | marked increases
